In patent US11629171B2, “Beta-hairpin peptidomimetics” (POLYPHOR AG, priority 2017, dated 2023):
Converted amounts (≈) assume the structure as drawn. Where a SMILES comes first, the peptide text is derived from it. Bridges are numbered along the chain shown (N, C = ends). Roman numbers before positions name the chains, in order. [ ]: non-standard residue; d: D form. The star is where a group is joined. Tle = CC(C)(C)[C@H](N)C(=O)O; NMeV = CN[C@H](C(=O)O)C(C)C; dDab = NCC[C@@H](N)C(=O)O; hSer = N[C@@H](CCO)C(=O)O; NHCH(CH2OH)2 = OCC(CO)N*; Dab = NCC[C@H](N)C(=O)O; Dap = NC[C@H](N)C(=O)O

Assays:
[1] = system: Escherichia coli 926415; format: cell-based; settings: 926415
Outline: (§1)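 Peptides are tested in serial two-fold dilutions against about 10^6 CFU/mL in MH-II broth containing 0.002% P-80 (v/v, final). Plates incubate 18-20 h at 35° C, and the MIC is the lowest peptide level (μg/mL) showing no visible growth.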

[2] = system: Klebsiella pneumoniae 968733; format: cell-based; settings: 968733
Outline: as §1

[3] = system: Escherichia coli ATCC 25922; format: cell-based; settings: ATCC 25922
Outline: as §1

[4] = system: Acinetobacter baumannii 872842; format: cell-based; settings: 872842
Outline: as §1

[5] = system: Pseudomonas aeruginosa ATCC 27853; format: cell-based; settings: ATCC 27853
Outline: as §1

[6] = system: Klebsiella pneumoniae SSI #3010; format: cell-based; settings: SSI #3010
Outline: as §1

[7] = system: Enterobacter cloacae 848840; format: cell-based; settings: 848840
Outline: as §1

[8] = system: Acinetobacter baumannii DSM 30008; format: cell-based; settings: DSM 30008
Outline: as §1

[9] = system: male ICR mice; assay: Tolerability in a mouse model (Maximum Tolerated Dose assay); format: in vivo; settings: groups of 3
Outline: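 Groups of 3 male ICR mice weighing 23±3 g received two subcutaneous doses, 12 h apart, of 30 or 40 mg/kg in saline adjusted to pH 6.5-7.6. Observation for 30 min after each dose covered autonomic effects and acute toxicity, including death.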

[10] = system: human red blood cells (hRBC); assay: Hemolysis; format: cell-based; settings: red cells of human, 1 h, 200
Outline: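 Hemoglobin release from PBS-washed hRBC at 20% (v/v), incubated 1 h at 37° C with peptides at 200 μg/mL, is measured at 540 nm. Values are blank corrected and given as a fraction of Triton X-100 lysis × 100%.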

[11] = 2 × 30 mg/kg s.c. at a 12-hr interval
[12] = 2 × 40 mg/kg s.c. at a 12-hr interval

## CC(=O)N[C@H](C(=O)N[C@H]1CSSC[C@@H](C(=O)N[C@@H](CO)C(N)=O)NC(=O)[C@H](C(C)(C)C)NC(=O)[C@H](CO)NC(=O)[C@H](Cc2c[nH]c3ccccc23)NC(=O)[C@H](CO)NC(=O)[C@@H](CCN)NC(=O)[C@H](CCC(=O)N[C@@H](CCN)C(=O)N[C@H](C(=O)N[C@@H](CN)C(=O)N[C@H]2CCNC(=O)[C@H]([C@@H](C)O)NC(=O)[C@H](CCN)NC(=O)[C@H](CCN)NC(=O)[C@H](CC(C)C)NC(=O)[C@@H](CC(C)C)NC(=O)[C@H](CCN)NC2=O)[C@@H](C)O)NC(=O)[C@H](CCN)NC(=O)[C@H](Cc2ccc(O)cc2)NC1=O)C(C)C [Ex. 114] (I: Ac-VCY[Dab]E[dDab]SWS[Tle]CS-NH2 / II: [Dab]T[Dap][Dab][Dab][dL]L[Dab][Dab]T; disulfide I:2-I:11; amide I:5-II:N; lactam II:4-II:C)
[1]
  MIC: 0.0625 µg/mL (≈ 0.0259 µM)
[2]
  MIC: 0.0625 µg/mL (≈ 0.0259 µM)
[3]
  MIC: 0.03125 µg/mL (≈ 0.013 µM)
[4]
  MIC: 0.03125 µg/mL (≈ 0.013 µM)
[5]
  MIC: 0.125 µg/mL (≈ 0.0518 µM)
[6]
  MIC: 0.0625 µg/mL (≈ 0.0259 µM)
[7]
  MIC: 0.0625 µg/mL (≈ 0.0259 µM)
[8]
  MIC: 0.0625 µg/mL (≈ 0.0259 µM)
[9]; [11]
  Mortality and dose: 0/3 died at 2 × 30 mg/kg
[10]
  Hemolysis at 200 μg/mL: <1%

## CN[C@H](C(=O)N[C@H]1CSSC[C@@H](C(=O)N[C@@H](CO)C(N)=O)NC(=O)[C@H](C(C)C)NC(=O)[C@H](CO)NC(=O)[C@H](Cc2c[nH]c3ccccc23)NC(=O)[C@H](CCO)NC(=O)[C@@H](CCN)NC(=O)[C@H](CCC(=O)N[C@@H](CCN)C(=O)N[C@H](C(=O)N[C@@H](CCN)C(=O)N[C@H]2CCNC(=O)[C@H]([C@@H](C)O)NC(=O)[C@H](CCN)NC(=O)[C@H](CCN)NC(=O)[C@H](CC(C)C)NC(=O)[C@@H](CC(C)C)NC(=O)[C@H](CCN)NC2=O)[C@@H](C)O)NC(=O)[C@H](CCN)NC(=O)[C@H](Cc2ccc(O)cc2)NC1=O)C(C)C [Ex. 43] (I: H-[NMeV]CY[Dab]E[dDab][hSer]WSVCS-NH2 / II: [Dab]T[Dab][Dab][Dab][dL]L[Dab][Dab]T; disulfide I:2-I:11; amide I:5-II:N; lactam II:4-II:C)
[1]
  MIC: 0.5 µg/mL (≈ 0.208 µM)
[2]
  MIC: 2 µg/mL (≈ 0.834 µM)
[3]
  MIC: 0.25 µg/mL (≈ 0.104 µM)
[4]
  MIC: 0.125 µg/mL (≈ 0.0521 µM)
[5]
  MIC: 0.5 µg/mL (≈ 0.208 µM)
[6]
  MIC: 0.25 µg/mL (≈ 0.104 µM)
[7]
  MIC: 2 µg/mL (≈ 0.834 µM)
[8]
  MIC: 0.5 µg/mL (≈ 0.208 µM)
[9]; [11]
  Mortality and dose: 0/3 died at 2 × 30 mg/kg
[10]
  Hemolysis at 200 μg/mL: <1%

## CC(=O)N[C@@H](Cc1ccc(O)cc1)C(=O)N[C@H]1CSSC[C@@H](C(=O)NC(CO)CO)NC(=O)[C@H](C(C)(C)C)NC(=O)[C@H](CO)NC(=O)[C@H](Cc2c[nH]c3ccccc23)NC(=O)[C@H](CCO)NC(=O)[C@@H](CCN)NC(=O)[C@H](CCC(=O)N[C@@H](CCN)C(=O)N[C@H](C(=O)N[C@@H](CCN)C(=O)N[C@H]2CCNC(=O)[C@H]([C@@H](C)O)NC(=O)[C@H](CCN)NC(=O)[C@H](CCN)NC(=O)[C@H](CC(C)C)NC(=O)[C@@H](CC(C)C)NC(=O)[C@H](CCN)NC2=O)[C@@H](C)O)NC(=O)[C@H](CCN)NC(=O)[C@H](C(C)C)NC1=O [Ex. 96] (I: Ac-YCV[Dab]E[dDab][hSer]WS[Tle]C-{NHCH(CH2OH)2} / II: [Dab]T[Dab][Dab][Dab][dL]L[Dab][Dab]T; disulfide I:2-I:11; amide I:5-II:N; lactam II:4-II:C)
[1]
  MIC: 0.5 µg/mL (≈ 0.206 µM)
[2]
  MIC: 0.125 µg/mL (≈ 0.0515 µM)
[3]
  MIC: 0.0625 µg/mL (≈ 0.0257 µM)
[4]
  MIC: 0.5 µg/mL (≈ 0.206 µM)
[5]
  MIC: 0.125 µg/mL (≈ 0.0515 µM)
[6]
  MIC: 0.125 µg/mL (≈ 0.0515 µM)
[7]
  MIC: 8 µg/mL (≈ 3.3 µM)
[8]
  MIC: 0.125 µg/mL (≈ 0.0515 µM)
[9]; [11]
  Mortality and dose: 0/3 died at 2 × 30 mg/kg
[10]
  Hemolysis at 200 μg/mL: <1%

## CC(=O)N[C@H](C(=O)N[C@H]1CSSC[C@@H](C(=O)N[C@@H](CO)C(N)=O)NC(=O)[C@H](C(C)C)NC(=O)[C@H](CO)NC(=O)[C@H](Cc2c[nH]c3ccccc23)NC(=O)[C@H](CCN)NC(=O)[C@@H](CO)NC(=O)[C@H](CCC(=O)N[C@@H](CCN)C(=O)N[C@H](C(=O)N[C@@H](CN)C(=O)N[C@H]2CCNC(=O)[C@H]([C@@H](C)O)NC(=O)[C@H](CCN)NC(=O)[C@H](CCN)NC(=O)[C@H](CC(C)C)NC(=O)[C@@H](CC(C)C)NC(=O)[C@H](CCN)NC2=O)[C@@H](C)O)NC(=O)[C@H](CCN)NC(=O)[C@H](Cc2ccc(O)cc2)NC1=O)C(C)C [Ex. 297] (I: Ac-VCY[Dab]E[dS][Dab]WSVCS-NH2 / II: [Dab]T[Dap][Dab][Dab][dL]L[Dab][Dab]T; disulfide I:2-I:11; amide I:5-II:N; lactam II:4-II:C)
[1]
  MIC: 0.125 µg/mL (≈ 0.0521 µM)
[2]
  MIC: 0.125 µg/mL (≈ 0.0521 µM)
[3]
  MIC: 0.03125 µg/mL (≈ 0.013 µM)
[4]
  MIC: 0.0625 µg/mL (≈ 0.0261 µM)
[5]
  MIC: 0.125 µg/mL (≈ 0.0521 µM)
[6]
  MIC: 0.0625 µg/mL (≈ 0.0261 µM)
[7]
  MIC: 0.125 µg/mL (≈ 0.0521 µM)
[8]
  MIC: 0.03125 µg/mL (≈ 0.013 µM)
[9]; [12]
  Mortality and dose: 0/3 died at 2 × 40 mg/kg
[10]
  Hemolysis at 200 μg/mL: <1%

## CC[C@H](C)[C@@H]1NC(=O)[C@H](CO)NC(=O)[C@H](Cc2c[nH]c3ccccc23)NC(=O)[C@H](CO)NC(=O)[C@@H](CCN)NC(=O)[C@H](CCC(=O)N[C@@H](CCN)C(=O)N[C@H](C(=O)N[C@@H](CN)C(=O)N[C@H]2CCNC(=O)[C@H]([C@@H](C)O)NC(=O)[C@H](CCN)NC(=O)[C@H](CCN)NC(=O)[C@H]([C@@H](C)O)NC(=O)[C@@H](CC(C)C)NC(=O)[C@H](CCN)NC2=O)[C@@H](C)O)NC(=O)[C@H](CCN)NC(=O)[C@H](Cc2ccc(O)cc2)NC(=O)[C@@H](NC(=O)[C@@H](NC(C)=O)C(C)C)CSSC[C@@H](C(=O)N[C@@H](CO)C(=O)N[C@H](C)C(N)=O)NC1=O [Ex. 380] (I: Ac-VCY[Dab]E[dDab]SWSICS[dA]-NH2 / II: [Dab]T[Dap][Dab][Dab][dL]T[Dab][Dab]T; disulfide I:2-I:11; amide I:5-II:N; lactam II:4-II:C)
[1]
  MIC: 0.125 µg/mL (≈ 0.0506 µM)
[2]
  MIC: 0.5 µg/mL (≈ 0.202 µM)
[3]
  Escherichia coli ATCC 25922 MIC: 0.03125 µg/mL
[4]
  MIC: 0.25 µg/mL (≈ 0.101 µM)
[5]
  Pseudomonas aeruginosa ATCC 27853 MIC: 0.125 µg/mL
[6]
  Klebsiella pneumoniae SSI #3010 MIC: 0.0625 µg/mL
[7]
  MIC: 0.125 µg/mL (≈ 0.0506 µM)
[8]
  Acinetobacter baumannii DSM 30008 MIC: 0.0625 µg/mL
[9]; [12]
  Mortality and dose: 0/3 died at 2 × 40 mg/kg
[10]
  Hemolysis at 200 μg/mL: <1%

## CC(=O)N[C@H](C(=O)N[C@H]1CSSC[C@@H](C(=O)N[C@@H](CO)C(N)=O)NC(=O)[C@H](C(C)C)NC(=O)[C@H](CO)NC(=O)[C@H](Cc2c[nH]c3ccccc23)NC(=O)[C@H](CO)NC(=O)[C@@H](CCN)NC(=O)[C@H](CCC(=O)N[C@@H](CCN)C(=O)N[C@H](C(=O)N[C@@H](CCN)C(=O)N[C@H]2CCNC(=O)[C@H]([C@@H](C)O)NC(=O)[C@H](CCN)NC(=O)[C@H](CCN)NC(=O)[C@H](CC(C)C)NC(=O)[C@@H](CC(C)C)NC(=O)[C@H](CCN)NC2=O)[C@@H](C)O)NC(=O)[C@H](CCN)NC(=O)[C@H](Cc2ccc(O)cc2)NC1=O)C(C)C [Ex. 334] (I: Ac-VCY[Dab]E[dDab]SWSVCS-NH2 / II: [Dab]T[Dab][Dab][Dab][dL]L[Dab][Dab]T; disulfide I:2-I:11; amide I:5-II:N; lactam II:4-II:C)
[1]
  MIC: 0.25 µg/mL (≈ 0.104 µM)
[2]
  MIC: 0.25 µg/mL (≈ 0.104 µM)
[3]
  Escherichia coli ATCC 25922 MIC: 0.03125 µg/mL
[4]
  MIC: 0.125 µg/mL (≈ 0.0518 µM)
[5]
  Pseudomonas aeruginosa ATCC 27853 MIC: 0.125 µg/mL
[6]
  Klebsiella pneumoniae SSI #3010 MIC: 0.0625 µg/mL
[7]
  MIC: 0.125 µg/mL (≈ 0.0518 µM)
[8]
  Acinetobacter baumannii DSM 30008 MIC: 0.03125 µg/mL
[9]; [12]
  Mortality and dose: 0/3 died at 2 × 40 mg/kg
[10]
  Hemolysis at 200 μg/mL: <1%
